Biological target in one experiment: not listed separately
The experiment can be described thus: Inhibition of erbB2 overexpressing HB4a.e5.2 cell proliferation.
Chain of Receptor tyrosine-protein kinase erbB-2 (P06494 whole entry): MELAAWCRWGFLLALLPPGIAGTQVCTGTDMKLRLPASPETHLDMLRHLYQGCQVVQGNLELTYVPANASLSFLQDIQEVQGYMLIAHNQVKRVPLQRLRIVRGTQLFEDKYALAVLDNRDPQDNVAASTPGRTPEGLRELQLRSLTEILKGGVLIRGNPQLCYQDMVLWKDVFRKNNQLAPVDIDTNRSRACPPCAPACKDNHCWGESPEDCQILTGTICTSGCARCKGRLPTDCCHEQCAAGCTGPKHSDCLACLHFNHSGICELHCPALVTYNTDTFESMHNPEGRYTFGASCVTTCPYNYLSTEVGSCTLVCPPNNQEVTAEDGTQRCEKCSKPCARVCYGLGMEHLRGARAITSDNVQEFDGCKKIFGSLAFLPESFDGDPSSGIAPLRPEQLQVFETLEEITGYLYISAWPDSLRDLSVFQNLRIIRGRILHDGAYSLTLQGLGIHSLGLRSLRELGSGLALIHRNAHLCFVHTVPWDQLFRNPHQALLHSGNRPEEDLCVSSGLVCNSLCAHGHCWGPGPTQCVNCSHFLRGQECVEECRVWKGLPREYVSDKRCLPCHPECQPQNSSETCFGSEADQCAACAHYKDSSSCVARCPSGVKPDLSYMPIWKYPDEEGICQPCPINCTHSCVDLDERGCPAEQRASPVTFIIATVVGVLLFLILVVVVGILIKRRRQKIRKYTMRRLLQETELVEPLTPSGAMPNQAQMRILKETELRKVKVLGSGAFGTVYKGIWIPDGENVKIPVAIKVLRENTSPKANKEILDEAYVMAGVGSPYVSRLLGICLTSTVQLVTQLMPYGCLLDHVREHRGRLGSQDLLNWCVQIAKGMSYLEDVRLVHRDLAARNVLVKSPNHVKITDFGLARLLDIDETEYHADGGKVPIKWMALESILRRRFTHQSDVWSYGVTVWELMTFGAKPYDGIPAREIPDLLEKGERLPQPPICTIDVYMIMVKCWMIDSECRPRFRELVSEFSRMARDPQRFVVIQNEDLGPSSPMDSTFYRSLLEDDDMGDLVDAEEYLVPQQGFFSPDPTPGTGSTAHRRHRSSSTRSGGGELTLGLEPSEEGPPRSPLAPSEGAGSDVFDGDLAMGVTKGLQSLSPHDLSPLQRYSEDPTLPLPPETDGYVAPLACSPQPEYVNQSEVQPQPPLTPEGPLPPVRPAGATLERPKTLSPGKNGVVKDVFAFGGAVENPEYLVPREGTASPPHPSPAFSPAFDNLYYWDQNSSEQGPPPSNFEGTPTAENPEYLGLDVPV
In general, IC50 refers to the point on the concentration scale where inhibition reaches its midpoint. A low value points to greater potency. The compound `CN(C)c1cc2c(Nc3ccc4c(cnn4Cc4ccccc4)c3)ncnc2cn1` [N*4*-(1-Benzyl-1H-indazol-5-yl)-N*6*,N*6*-dimethyl-pyrido[3,4-d]pyrimidine-4,6-diamine] had an IC50 of 0.097 µM.

Biological target in a further experiment: not listed separately
The experiment can be described thus: Inhibition of erbB2 overexpressing BT 474 cell proliferation.
As to `CN(C)c1cc2c(Nc3ccc4c(cnn4Cc4ccccc4)c3)ncnc2cn1` [N*4*-(1-Benzyl-1H-indazol-5-yl)-N*6*,N*6*-dimethyl-pyrido[3,4-d]pyrimidine-4,6-diamine], half-maximal inhibition (IC50) required 0.07 µM.

A further experiment addresses Receptor tyrosine-protein kinase erbB-2 (Rattus norvegicus, UniProt P06494). The experiment can be described thus: ChEBML_194950. The source says:
Inhibition of rat Receptor protein-tyrosine kinase erbB2
As for `CN(C)c1cc2c(Nc3ccc4c(cnn4Cc4ccccc4)c3)ncnc2cn1` [N*4*-(1-Benzyl-1H-indazol-5-yl)-N*6*,N*6*-dimethyl-pyrido[3,4-d]pyrimidine-4,6-diamine], the IC50 is 0.39 µM.

Biological target in the next experiment: not listed separately
Description: Inhibition of c-erbB-2 overexpressing HB4a cell proliferation.
`c1ccc(Cc2nc3ccc(Nc4ncnc5ccccc45)cc3[nH]2)cc1` [(2-Benzyl-1H-benzoimidazol-5-yl)-quinazolin-4-yl-amine] came in with an IC50 of 1.3 µM.
In the case of `c1ccc(Cn2cnc3cc(Nc4ncnc5ccccc45)ccc32)cc1` [(1-Benzyl-1H-benzoimidazol-5-yl)-quinazolin-4-yl-amine], it took 27 µM to reach half-maximal inhibition (IC50).
Still for that read-out and setting: the value for `Nc1cc2c(Nc3ccc4nc(Cc5ccccc5)[nH]c4c3)ncnc2cn1` [N*4*-(2-Benzyl-1H-benzoimidazol-5-yl)-pyrido[3,4-d]pyrimidine-4,6-diamine] was 1.86 µM; that for `COc1cc2ncnc(Nc3ccc4nn(Cc5ccccc5)cc4c3)c2cc1OC` [(2-Benzyl-2H-indazol-5-yl)-(6,7-dimethoxy-quinazolin-4-yl)-amine] was 3.1 µM; that for `COc1cc2ncnc(Nc3ccc4c(ccn4Cc4ccccc4)c3)c2cc1OC` [(1-Benzyl-1H-indol-5-yl)-(6,7-dimethoxy-quinazolin-4-yl)-amine] was 0.35 µM.
As for `Nc1cc2c(Nc3ccc4c(cnn4Cc4ccccc4)c3)ncnc2cn1` [N*4*-(1-Benzyl-1H-indazol-5-yl)-pyrido[3,4-d]pyrimidine-4,6-diamine], the IC50 was 0.097 µM.
The same measure, in the same setting: the value for `COc1cc2ncnc(Nc3ccc4nc(Cc5ccccc5)[nH]c4c3)c2cc1OC` [(2-Benzyl-1H-benzoimidazol-5-yl)-(6,7-dimethoxy-quinazolin-4-yl)-amine] was 1.1 µM.
With `c1ccc(Cn2ccc3cc(Nc4ncnc5ccccc45)ccc32)cc1` [(1-Benzyl-1H-indol-5-yl)-quinazolin-4-yl-amine], the midpoint of inhibition, the IC50, lay at 1.3 µM.
Take `COc1cc2ncnc(Nc3ccc4c(cnn4Cc4ccccc4)c3)c2cc1OC` [(1-Benzyl-1H-indazol-5-yl)-(6,7-dimethoxy-quinazolin-4-yl)-amine]: 0.29 µM corresponded to half-maximal inhibition (IC50).
Turning to `c1ccc(Cn2cnc3ccc(Nc4ncnc5ccccc45)cc32)cc1` [(3-Benzyl-3H-benzoimidazol-5-yl)-quinazolin-4-yl-amine], the IC50 worked out at 21 µM.
